Here are results for two compounds from patent publication US20250161238A1, “NMDAR Antagonists Prevent Ageing and Aging-Associated Conditions and Diseases Through Increasing 20S Proteasome Activity” (priority 2022, published 2025).

“Also recorded” adds a separate entry of the source.

One series deals with hippocampal slices. The note with it: 6-10 uM; cited from earlier work.
Series [1] concerns the target T1, acid beta-glucosidase (GCase) (Mus musculus, UniProt P17439).
T1 construct: host or cells: mice (in vivo), US 2017/0273917 A1 and Klein et al. 2016
T1 sequence (P17439 20-515): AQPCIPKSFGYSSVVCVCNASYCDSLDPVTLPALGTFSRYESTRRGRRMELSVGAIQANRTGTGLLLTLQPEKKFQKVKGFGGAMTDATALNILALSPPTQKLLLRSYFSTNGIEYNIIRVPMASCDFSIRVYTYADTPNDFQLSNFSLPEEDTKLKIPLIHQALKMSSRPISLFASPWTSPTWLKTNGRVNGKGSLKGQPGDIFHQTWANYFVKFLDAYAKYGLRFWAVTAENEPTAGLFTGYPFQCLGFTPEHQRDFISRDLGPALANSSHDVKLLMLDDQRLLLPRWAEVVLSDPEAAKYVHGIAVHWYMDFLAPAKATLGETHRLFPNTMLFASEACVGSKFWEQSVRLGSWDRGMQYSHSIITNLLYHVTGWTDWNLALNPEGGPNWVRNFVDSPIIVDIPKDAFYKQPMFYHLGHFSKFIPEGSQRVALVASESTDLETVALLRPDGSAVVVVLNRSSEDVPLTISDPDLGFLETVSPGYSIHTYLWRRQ
The note with it: in vivo; cited from earlier work.

The next series has as its system mice with GD symptoms. The conditions noted are these: inverted screen / hanging wire test; cited from earlier work.
The subject of another series is mice. The series can be described thus: Kondziela's inverted screen test in aged mice. Type of series: in vivo. The conditions noted are these: mice at 22 months. An excerpt: Kondziela's inverted screen test is one of tests which examine the muscle strength using all four limbs. Four limb-hanging test which is the Kondziella's inverted screen test represents a method to assess muscle strength using all four limbs grip and to determine the general condition during time. […] As a result, the test can provide important information about age-related neuromuscular decline.
The experimental protocols were approved by the Ethics Committee of Ankara University, Faculty of Medicine, Medical Sciences Experimental Research and Application Center (Date: Dec. 11, 2019 and Decision number: 2019-22-189). Adult (12-mounts-old) C57BL/6 mice (5 for each group) were used. The mice were housed at the Experimental Animal Research Laboratory of Ankara University Faculty of Medicine. Food and water were given without restriction. The ambient temperature was kept at 21±2° C., and locomotor activity tests were performed at this temperature. The animals were housed in a room with a 12-hour light/dark cycle. The procedures in the study were performed in accordance with the Ankara University Animal Care Committee according to international guidelines. Memantine (Sigma-Aldrich) was administered orally at 3 mg/Kg/per day with drinking water of one-year-old mice. Tests related to locomotor activities of the mice were recorded and available.
Inverted screen test described firstly Kondizela for muscle strength (Kondizela, 1964). The mouse was put on a center of the rectangular mesh screen (52 cm×32 cm) and the screen was rotated 180° over 2 seconds. The screen was held steadily 40-50 cm above a sawdust surface. Holding time were recorded for a maximum of 5 minutes. The inverted screen was scored previously by Deacon (Falling between 1-10 sec=1 Falling between 11-25 seconds=2 Falling between 26-60 seconds=3 Falling between 61-90 seconds=4 Falling after 90 seconds=5) (Deacon, 2013). According to previous studies, parameters such as Total mobility time % (Gleitz et al, 2017), the latency of falling time, and four limbs griping time (Roemers et al, 2019) were analyzed.

The conditions of series [2]: mice, 30 mg/kg dose; cited from earlier work.
The conditions of series [3]: human subjects; cited from earlier work.
For series [4] the following is noted: cited from earlier work.
The conditions of series [5]: animals studies; cited from earlier work.
The test system of series [6] is human mesenchymal stem cells. As to the kind of experiment: MTT test of mesenchymal stem cells. Format: cell-based. The note with it: day 21. In general terms: Tetrazolium dyes change colour on reduction, which living cells bring about.
The subject of another series is Ub-YFP. As to the kind of experiment: Ub-YFP degredation in Hep3B cells. Format: cell-based, human. How it is done:
This finding was supported by the following experiments; First, a model was developed to find inhibitor or inhibitors for the ubiquitin dependent degredation in the Hep3B cell line. For this purpose Hep3B cell expressing Ub-YFP genome were prepared. Ub-YFP is a system which was used to detect the ubiquitin dependent proteasome activity (26S). It is also known that Ub-YFP is not affected by the ubiquitin-independent protesome system. In further experiments, we tested molecules which are involved in different parts of the ubiquitination processes including PYR41 (Ubiquitin-activating enzyme (E1) inhibitor), NCC697923 (UBE2N E2 ubiquitin-conjugating enzyme inhibitor), SMER3 (ubiquitin ligase E3 inhibitor), SZL-P1-411 (Skp2 E3 ligase inhibitor), SKPIN C1 (Skp2 E3 ligase inhibitor), P005091 (USP7 inhibitor), Vialin A (USP4 and USP5 inhibitor), Spautin A (USP10 and USP13 inhibitor), ML 323 (USP1-UAF1 inhibitor), IU1 (USP14 inhibitor), and Mg132 (protesome inhibitor) for the inhibition of Ub-YFP degredation. […] MG132 was used as the inhibitor of the protesome activity (FIG. 12A). In the next experiment YFP protein amount was investigated in the presence of ketamin, Pyr41, and ketamin and Pyr41 together by western blot in Hep3B cell.
The Ub-R-YFP open-reading frame was obtained from Ub-R-YFP was a gift from Nico Dantuma (Addgene plasmid #11948). Ub-R-YFP sequence was obtained from the original vector by cutting the plasmid with NheI and NotI enzymes (Thermo Scientific), blunt ended and was cloned into pBSK-clo2D which is cut by EcoRV restriction enzyme (SibEnzyme, E059). Ub-R-YFP was obtained from the pBSK-clo2D vector by cutting with BamHI. pLV-EF1a-IRES-Puro (85132-Addgene) vector was cut by BamHI restriction enzyme and dephospharylated and ligated with Ub-R-YFP. After the orientation construct was determined, pLV-EF1a-IRES-Puro-Ub-R-YFP was reproduced in large volumes using DH5a E. Coli.
Hek293T cells were transfected with the pLV-EF1a-IRES-Puro-Ub-R-YFP and helper vectors psPAX2 and pMD2.G using Calcium Phosphate Mammalian Transfection Kit (631312-Takara bio). After 48 h supernatants containing Ub-R-YFP lentivirus were collected and target cells were infected under the presence of […] polybrene. After 24 hours, the media of the cells were replaced with media containing […] puromycin for 6 days. Then living cells were combined in a pool. Infected clones were maintained in the presence of 250 ng/ml puromycin.

Regarding `CC12CC3CC(C)(C1)CC(N)(C3)C2` [memantine, 3,5-dimethyladamantan-1-amine], the “LTP in hippocampal slices” value in the series with hippocampal slices is on record as “do not attenuate”. In addition, the “Gcase inhibition and level of Gcase substrates GlcCer and GSLs” value in series [1] is on record as “no effect”. The “muscle strength / motor coordination of GD mice” value in the series with mice with GD symptoms is on record as “much better; also recorded: improved significantly; also recorded: increase the muscle strength”. Also, in the series with mice, the “four fingers grip time” value was “more than two times”; the mobility time result is “more than twice as much”; the “time in the inverted frame (latency of falling, holding time)” value is “twice as long”. Besides, in series [2], the tolerability result is listed as “well tolerated”. The “CSF concentrations, lower” value in [3] is on record as 30-40%. In addition, in [4], the “free rat brain concentrations, lower in plasma” value is listed as 20-30%. The “induction of HSP, neuronal vacuolization and necrosis” value in [5] is “No induction”. For the same compound, the “lifespan of human mesenchymal stem cells (MTT test)” value in [6] is reported as “increase the lifespan”.
With `CNC1(c2ccccc2Cl)CCCCC1=O` (stereo not shown) [ketamin, 2-(2-chlorophenyl)-2-(methylamino)-cyclohexanone], the Ub-YFP degredation entry with Ub-YFP (Hep3B expressing Ub-YFP) is “no effect”. In addition, in the series with Ub-YFP (Hep3B, western blot), the YFP protein amount result is reported as “did not decrease”.
